Measured values taken from publication PMC11239938, “Inhibition of DUSP18 impairs cholesterol biosynthesis and promotes anti-tumor immunity in colorectal cancer” (Nature Communications, 2024).

Tests used:
[1] = biological target: T1, DUSP18 (Homo sapiens, UniProt Q8NEJ0); test: microscale thermophoresis
T1 construct: purified human DUSP18 for MST (Methods: cell samples lysed with RIPA buffer); recombinant GST-DUSP18-His for dephosphorylation assay; endogenous in HCT116 and SW480 cells for CETSA
T1 sequence (Q8NEJ0 1-188): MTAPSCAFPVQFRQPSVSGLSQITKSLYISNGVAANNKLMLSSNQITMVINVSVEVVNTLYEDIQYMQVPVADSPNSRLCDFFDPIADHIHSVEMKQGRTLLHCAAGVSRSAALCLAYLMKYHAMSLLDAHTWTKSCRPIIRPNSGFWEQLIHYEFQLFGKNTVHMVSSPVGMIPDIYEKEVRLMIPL
Description: microscale thermophoresis on DUSP18 | Kd) value was determined as the binding of Lumacaftor to purified human DUSP18

[2] = biological target: T1, DUSP18; test: in vitro dephosphorylation of Flag-USF1, phospho-immunoblot; assay type: biochemical; details: 40 μM Lumacaftor; recombinant GST-DUSP18-His; substrate Flag-USF1 WT

Cc1ccc(NC(=O)C2(c3ccc4c(c3)OC(F)(F)O4)CC2)nc1-c1cccc(C(=O)O)c1 [Lumacaftor]
Kd [1]: 29.5 ± 3.5 µM | in vitro dephosphorylation of Flag-USF1, phospho-immunoblot [2]: Lumacaftor inhibited the ability of purified DUSP18 to dephosphorylate WT USF1
